{"source": "patent US20110178100A1", "about": "“APOPTOSIS INHIBITOR” (NIHON UNIVERSITY, priority 2008, published 2011)", "key": {"[1]": {"system": "HT22 cells", "assay": "Hypoxia/reoxygenation-induced cell death, LDH release assay", "assay_type": "cell-based", "method": "(§1) HT22 cells were cultured in DMEM containing 10% FBS in a 10% CO2 incubator at 37° C.\n(§2) Hypoxia loading was performed by using an oxygen absorber/CO2 generator AnaeroPack Kenki For Cell™, and reoxygenation was performed by restoring the condition to normoxia.\nLDH assay was conducted using a supernatant of a medium of cells treated as intended as a sample and a measurement kit (LDH cytotoxic test).\nSpecifically, the cells were cultured in a 96-well assay plate and treated as intended. Then, 50 μL of only the medium was collected and transferred to a newly prepared plate. A coloring reagent was added to each well. After incubation for 20 minutes, 100 μL of a reaction stop solution was added thereto, and the absorbance at 570 nm was measured using a microplate reader. The results are indicated relative to the absorbance of control cells defined as 100%.\nLDH release was measured after hypoxia for 18 hours (H18) and subsequent reoxygenation for 24 hours (R24). Cells placed under normoxia for 42 (18+24) hours (N42) were used as a control. GR103691 was added immediately before reoxygenation (or after 18-hour culture to the control cells).\nLDH release was measured after hypoxia for 18 hours (H18) and subsequent reoxygenation for 24 hours (R24). Cells placed under normoxia for 42 (18+24) hours (N42) were used as a control. Nafadotride was added immediately before reoxygenation (or after 18-hour culture for the control cells)."}, "[2]": {"system": "HT22 cells", "assay": "Glutamic acid-induced cell death, MTT assay", "assay_type": "cell-based", "details": "MTT 24 hours after glutamic acid, added immediately before glutamic acid", "method": "(§3) HT22 cells were cultured in DMEM containing 10% FBS in a 10% CO2 incubator at 37° C. MTT assay was conducted according to a ordinary method by using cells treated as intended as a sample. Specifically, the cells were cultured in a 96-well assay plate and treated as intended. Then, 10 μL of an MTT solution was added to each well, followed by incubation for 4 hours. 100 μL of a reaction stop solution was added thereto. The plate was left overnight, and the absorbance (measurement wavelength: 570 nm, control wavelength: 655 nm) was then measured using a microplate reader. The results are indicated relative to the absorbance of control cells defined as 100%. In this context, the MTT value is a value that indicates mitochondrial reductive capacity. This value correlates with cell viability in many cases and is therefore used as an index of cell viability. It has been confirmed as to the glutamic acid-induced cell death of HT22 cells that the results of MTT assay correlate with cell viability. MTT assay was conducted 24 hours after addition of glutamic acid. GR103691 was added immediately before the addition of glutamic acid (Glu)."}, "[3]": {"system": "HT22 cells", "assay": "Tunicamycin-induced cell death, MTT assay", "assay_type": "cell-based", "details": "MTT 24 hours after tunicamycin, added immediately before tunicamycin", "method": "as §3, with “tunicamycin (TM).” for “glutamic acid.”, “tunicamycin (TM).” for “glutamic acid (Glu).”"}, "[4]": {"system": "HT22 cells", "assay": "Intracellular reactive oxygen species (ROS) assay with H2DCFDA after hypoxia-reoxygenation loading", "assay_type": "cell-based", "details": "3 μM, added immediately before reoxygenation, hypoxia 18 h, reoxygenation 3 h", "method": "as §1, §2\nIntracellular ROS levels were measured by using H2DCFDA. Cells were treated as intended and then treated with 5 μM H2DCFDA. After 15 minutes, the cells were observed under a fluorescence microscope (480 nm/526 nm).\nTime-dependent change of ROS was examined during reoxygenation for 12 hours after hypoxia for 18 hours (H18). Cells placed under normoxia for the same hours (N30) were used as a control. GR103691 was added at a concentration of 3 μM immediately before reoxygenation (or after 18-hour culture to the control cells)."}, "[5]": {"system": "hippocampal CA1 region", "assay": "Mouse cerebral ischemia/reperfusion model, FJB and ssDNA staining of hippocampal CA1 region", "assay_type": "in vivo, C57BL/6J mice", "details": "72 hours after reperfusion", "method": "Male C57BL/6J mice (9-12 week old) were used. After halothane anesthesia, the left and right common carotid arteries were ligated for 17 minutes while the cerebral blood flow was monitored. Then, the blood flow was resumed to prepare a cerebral ischemia/reperfusion model. Paraffin sections of the brain were prepared 72 hours after reperfusion according to an ordinary method and immunostained with Fluoro Jade B (FJB) that stains dead cells green or with single-stranded DNA (ssDNA) that permits detection of apoptosis cells by the staining of nuclear fragmentation. The cells were observed under a microscope. GR103691 was administered at a dose of 1, 3, or 10 mg/kg from the tail vein of each mouse within 10 minutes after reperfusion. Moreover, for comparison, edaravone (manufactured by CALBIOCHEM) used for improving neurological symptoms, problems with movement of daily living, and dysfunction at the acute stage of brain infarction was administered at a dose of 3 or 10 mg/kg to each mouse. A saline-administered group and a sham group without only ischemia treatment were observed as controls.\nIn FIG. 7, the bright green color represents apoptosis cells. Moreover, the number of FJB-positive cells was counted to determine its proportion to the total number of cells (FIG. 8). The results of each group are indicated as mean±standard error."}, "[6]": {"details": "HT22 cells, added immediately before reoxygenation"}, "[7]": {"details": "HT22 cells, hypoxia 18 h, reoxygenation 24 h, added immediately before reoxygenation"}, "[8]": {"details": "10 mg/kg from the tail vein within 10 minutes after reperfusion"}, "[9]": {"details": "1, 3, or 10 mg/kg from the tail vein within 10 minutes after reperfusion"}}, "note": "Entries after “also recorded” stand apart in the source; their conditions may differ.", "data": [{"smiles": "COc1ccccc1N1CCN(CCCCNC(=O)c2ccc(-c3ccc(C(C)=O)cc3)cc2)CC1", "note": "[GR103691, 4′-acetyl-N-[4-[4-(2-methoxyphenyl)-1-piperazinyl]butyl]-[1,1′-biphenyl]-4-carboxamide]", "values": [{"measurement": "LDH release of the control cells", "setting": "[1]; HT22 cells under normoxia 42 h (N42), added after 18-hour culture", "result": "not influenced"}, {"measurement": "increase of LDH release caused by H18/R24", "setting": "[1]; [6]", "result": "almost the maximum effect"}, {"measurement": "LDH release of H18/R24-treated cells (hypoxia/reoxygenation-induced cell death)", "setting": "[1]; [7]", "result": "reduced the LDH release of the H18/R24-treated cells in a concentration-dependent manner"}, {"measurement": "concentration at which the reduction of LDH release of H18/R24-treated cells was significant", "setting": "[1]; [7]", "result": "≥ 1", "unit": "µM"}, {"measurement": "reduction of MTT value caused by glutamic acid (glutamic acid-induced cell death)", "setting": "[2]", "result": "significantly recovered the reduction of MTT value"}, {"measurement": "reduction of MTT value caused by TM (tunicamycin-induced cell death)", "setting": "[3]", "result": "did not influence the reduction of MTT value"}, {"measurement": "transient increase of ROS in H18/R3-treated cells (H2DCFDA-positive cells)", "setting": "[4]", "result": "inhibited"}, {"measurement": "cell death in the hippocampal CA1 region (FJB-positive cells)", "setting": "[5]; [8]", "result": "significantly inhibited"}, {"measurement": "ssDNA-positive cells in the hippocampal CA1 region", "setting": "[5]; [8]", "result": "significantly decreased"}, {"measurement": "cell death in the hippocampal CA1 region (FJB-positive cells)", "setting": "[5]; [9]", "result": "inhibited such cell death in a dose-dependent manner"}, {"measurement": "ssDNA-positive cells in the hippocampal CA1 region", "setting": "[5]; [9]", "result": "decreased by GR103691 in a dose-dependent manner"}]}, {"smiles": "CC1=NN(c2ccccc2)C(=O)C1", "note": "[edaravone, reference compound]", "values": [{"measurement": "decreasing effect on ssDNA-positive cells in the hippocampal CA1 region, compared with GR103691", "setting": "[5]; edaravone 3 or 10 mg/kg", "result": "almost the same level"}, {"measurement": "inhibitory effect on cell death in the hippocampal CA1 region (FJB-positive cells), compared with GR103691", "setting": "[5]; edaravone 3 or 10 mg/kg", "result": "almost the same level"}]}, {"smiles": "CCCCN1CCCC1CNC(=O)c1cc(C#N)c2ccccc2c1OC", "note": "(centres unmarked) [nafadotride, reference compound]", "values": [{"measurement": "increase of LDH release caused by H18/R24", "setting": "[1]; [6]", "result": "did not inhibit apoptosis; also recorded: did not influence increase of LDH release"}]}]}
